Measured values published in PubChem BioAssay (NCI).
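In this assay, cells in 96-well plates receive the compound at five concentrations for 48 hours. Endpoints are linearly interpolated between the surrounding concentrations. GI50: concentration for 50% inhibition of growth. TGI marks complete inhibition of growth.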

How the values were obtained:
Assay in all cases: growth of human tumour cells (NCI), 48 h
KM12 colon = test system: KM12 colon
HOP-92 NSCLC = test system: HOP-92 NSCLC
SW-620 colon = test system: SW-620 colon
CCRF-CEM leukemia = test system: CCRF-CEM leukemia
OVCAR-8 ovarian = test system: OVCAR-8 ovarian
LOX IMVI melanoma = test system: LOX IMVI melanoma
SF-539 CNS = test system: SF-539 CNS
UO-31 renal = test system: UO-31 renal
M14 melanoma = test system: M14 melanoma
IGROV1 ovarian = test system: IGROV1 ovarian
OVCAR-4 ovarian = test system: OVCAR-4 ovarian
TK-10 renal = test system: TK-10 renal
MDA-MB-231 breast = test system: MDA-MB-231 breast
NCI-H460 lung = test system: NCI-H460 lung
SK-MEL-28 melanoma = test system: SK-MEL-28 melanoma
SNB-75 CNS = test system: SNB-75 CNS
MALME-3M melanoma = test system: MALME-3M melanoma
786-0 renal = test system: 786-0 renal
T-47D breast = test system: T-47D breast
COLO 205 colon = test system: COLO 205 colon
HCT-15 colon = test system: HCT-15 colon
NCI/ADR-RES ovarian = test system: NCI/ADR-RES ovarian
SN12C renal = test system: SN12C renal
HCT-116 colon = test system: HCT-116 colon
U251 CNS = test system: U251 CNS
NCI-H23 lung = test system: NCI-H23 lung
MDA-MB-435 = test system: MDA-MB-435
HCC-2998 colon = test system: HCC-2998 colon
MOLT-4 leukemia = test system: MOLT-4 leukemia
CAKI-1 renal = test system: CAKI-1 renal
SK-MEL-2 melanoma = test system: SK-MEL-2 melanoma
RXF 393 renal = test system: RXF 393 renal
OVCAR-5 ovarian = test system: OVCAR-5 ovarian
ACHN renal = test system: ACHN renal
SR leukemia = test system: SR leukemia
A549 NSCLC = test system: A549 NSCLC
HT29 colon = test system: HT29 colon
A498 renal = test system: A498 renal
UACC-62 melanoma = test system: UACC-62 melanoma
NCI-H226 lung = test system: NCI-H226 lung
HOP-62 NSCLC = test system: HOP-62 NSCLC
PC-3 prostate = test system: PC-3 prostate
NCI-H522 lung = test system: NCI-H522 lung
MCF7 breast = test system: MCF7 breast
SK-OV-3 ovarian = test system: SK-OV-3 ovarian
SF-268 CNS = test system: SF-268 CNS
HS 578T breast = test system: HS 578T breast
DU-145 prostate = test system: DU-145 prostate
SNB-19 CNS = test system: SNB-19 CNS
BT-549 breast = test system: BT-549 breast
HL-60(TB) leukemia = test system: HL-60(TB) leukemia
K-562 leukemia = test system: K-562 leukemia
SK-MEL-5 melanoma = test system: SK-MEL-5 melanoma
UACC-257 melanoma = test system: UACC-257 melanoma
OVCAR-3 ovarian = test system: OVCAR-3 ovarian

SMILES: CCOC(=O)N1C/C(=C/c2ccc(Cl)cc2)C(=O)/C(=C/c2ccc(Cl)cc2)C1
- GI50 (KM12 colon): 2.1 µM
- TGI (KM12 colon): 4.39 µM
- GI50 (HOP-92 NSCLC): 10.5 µM
- TGI (HOP-92 NSCLC): 32 µM
- GI50 (SW-620 colon): 2.06 µM
- TGI (SW-620 colon): 4.73 µM
- GI50 (CCRF-CEM leukemia): 3.24 µM
- TGI (CCRF-CEM leukemia): > 100 µM
- GI50 (OVCAR-8 ovarian): 3.81 µM
- TGI (OVCAR-8 ovarian): 86.4 µM
- GI50 (LOX IMVI melanoma): 1.89 µM
- TGI (LOX IMVI melanoma): 4.22 µM
- GI50 (SF-539 CNS): 2.67 µM
- TGI (SF-539 CNS): 7.81 µM
- GI50 (UO-31 renal): 2.36 µM
- TGI (UO-31 renal): 7.2 µM
- GI50 (M14 melanoma): 4.23 µM
- TGI (M14 melanoma): 17.8 µM
- GI50 (IGROV1 ovarian): 3.52 µM
- TGI (IGROV1 ovarian): 13 µM
- GI50 (OVCAR-4 ovarian): 3.35 µM
- TGI (OVCAR-4 ovarian): 14.4 µM
- GI50 (TK-10 renal): 5.01 µM
- TGI (TK-10 renal): 17.6 µM
- GI50 (MDA-MB-231 breast): 2.88 µM
- TGI (MDA-MB-231 breast): 9.37 µM
- GI50 (NCI-H460 lung): 3.86 µM
- TGI (NCI-H460 lung): 16.4 µM
- GI50 (SK-MEL-28 melanoma): 3.43 µM
- TGI (SK-MEL-28 melanoma): 12.7 µM
- GI50 (SNB-75 CNS): 3.15 µM
- TGI (SNB-75 CNS): 16.2 µM
- GI50 (MALME-3M melanoma): 15.4 µM
- TGI (MALME-3M melanoma): 32 µM
- GI50 (786-0 renal): 2.08 µM
- TGI (786-0 renal): 4.35 µM
- GI50 (T-47D breast): 3.74 µM
- TGI (T-47D breast): 35.5 µM
- GI50 (COLO 205 colon): 2.96 µM
- TGI (COLO 205 colon): 8.83 µM
- GI50 (HCT-15 colon): 2.18 µM
- TGI (HCT-15 colon): 7.24 µM
- GI50 (NCI/ADR-RES ovarian): 7.45 µM
- TGI (NCI/ADR-RES ovarian): 95.6 µM
- GI50 (SN12C renal): 2.84 µM
- TGI (SN12C renal): 11.7 µM
- GI50 (HCT-116 colon): 1.04 µM
- TGI (HCT-116 colon): 2.72 µM
- GI50 (U251 CNS): 1.98 µM
- TGI (U251 CNS): 4.18 µM
- GI50 (NCI-H23 lung): 5.37 µM
- TGI (NCI-H23 lung): 27.7 µM
- GI50 (MDA-MB-435): 3.33 µM
- TGI (MDA-MB-435): 13 µM
- GI50 (HCC-2998 colon): 2.32 µM
- TGI (HCC-2998 colon): 5.29 µM
- GI50 (MOLT-4 leukemia): 4.65 µM
- TGI (MOLT-4 leukemia): > 100 µM
- GI50 (CAKI-1 renal): 4.57 µM
- TGI (CAKI-1 renal): > 100 µM
- GI50 (SK-MEL-2 melanoma): 19.6 µM
- TGI (SK-MEL-2 melanoma): 40.9 µM
- GI50 (RXF 393 renal): 1.69 µM
- TGI (RXF 393 renal): 3.34 µM
- GI50 (OVCAR-5 ovarian): 4.43 µM
- TGI (OVCAR-5 ovarian): 19.8 µM
- GI50 (ACHN renal): 3.04 µM
- TGI (ACHN renal): 10.5 µM
- GI50 (SR leukemia): 1.49 µM
- TGI (SR leukemia): > 100 µM
- GI50 (A549 NSCLC): 3.06 µM
- TGI (A549 NSCLC): 20.7 µM
- GI50 (HT29 colon): 1.97 µM
- TGI (HT29 colon): 3.95 µM
- GI50 (A498 renal): 12 µM
- TGI (A498 renal): 26.4 µM
- GI50 (UACC-62 melanoma): 3 µM
- TGI (UACC-62 melanoma): 14.3 µM
- GI50 (NCI-H226 lung): 16.9 µM
- TGI (NCI-H226 lung): 52 µM
- GI50 (HOP-62 NSCLC): 2.47 µM
- TGI (HOP-62 NSCLC): 5.72 µM
- GI50 (PC-3 prostate): 2.94 µM
- TGI (PC-3 prostate): 15 µM
- GI50 (NCI-H522 lung): 9.77 µM
- TGI (NCI-H522 lung): 22.4 µM
- GI50 (MCF7 breast): 1.55 µM
- TGI (MCF7 breast): 8.04 µM
- GI50 (SK-OV-3 ovarian): 5.42 µM
- TGI (SK-OV-3 ovarian): 20.8 µM
- GI50 (SF-268 CNS): 3.86 µM
- TGI (SF-268 CNS): 14.7 µM
- GI50 (HS 578T breast): 3.94 µM
- TGI (HS 578T breast): 41.8 µM
- GI50 (DU-145 prostate): 4.36 µM
- TGI (DU-145 prostate): 15.9 µM
- GI50 (SNB-19 CNS): 4.66 µM
- TGI (SNB-19 CNS): 18.4 µM
- GI50 (BT-549 breast): 2.41 µM
- TGI (BT-549 breast): 5.6 µM
- GI50 (HL-60(TB) leukemia): 7.04 µM
- TGI (HL-60(TB) leukemia): 88.7 µM
- GI50 (K-562 leukemia): 3.34 µM
- TGI (K-562 leukemia): > 100 µM
- GI50 (SK-MEL-5 melanoma): 3.43 µM
- TGI (SK-MEL-5 melanoma): 13.1 µM
- GI50 (UACC-257 melanoma): 8.54 µM
- TGI (UACC-257 melanoma): 23.9 µM
- GI50 (OVCAR-3 ovarian): 2.22 µM
- TGI (OVCAR-3 ovarian): 4.57 µM
